# Values of other authors as cited in article PMC4667793 (Journal of medicinal chemistry, 2015).
# Where a name gives a salt, the structure may show the parent alone.
# Target: MtBPL (Mycobacterium tuberculosis, UniProt I6YFP0)
# Conditions: binding MtBPL; cited from earlier work
# Sequence of MtBPL (I6YFP0 whole entry, looked up): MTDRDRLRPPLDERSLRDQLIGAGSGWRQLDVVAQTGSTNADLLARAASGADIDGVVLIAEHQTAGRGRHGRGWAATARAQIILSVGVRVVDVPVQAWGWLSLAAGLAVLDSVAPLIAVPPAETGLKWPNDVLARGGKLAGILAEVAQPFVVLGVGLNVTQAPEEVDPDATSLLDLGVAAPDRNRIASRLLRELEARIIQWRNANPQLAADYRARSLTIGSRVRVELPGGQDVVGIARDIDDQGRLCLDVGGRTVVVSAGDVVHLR
smiles,measurement,value
"Nc1ncnc2c1ncn2[C@@H]1O[C@H](CNS(=O)(=O)NC(=O)CCCC[C@@H]2SC[C@@H]3NC(=O)N[C@@H]32)[C@@H](O)[C@H]1O [Compound 14, 5′-[N-(D-biotinoyl)sulfamoyl]amino-5′-deoxyadenosine triethylammonium salt]",times more tightly bound than biotin,"more than 1,700 times"
